Laboratory results published in PubChem BioAssay AID328 (DTP/NCI, 2004).
Where “and” joins values, the source holds several entries; their conditions need not be identical. Equal entries are not always repeated. Toxic doses and inconclusive results are not listed.

System: BDF1 mice, P388 leukemia ip, median survival T/C
Test: NCI In Vivo Anticancer Drug Screen. Data for tumor model P388 Leukemia (intraperitoneal) in B6D2F1 (BDF1) mice
Conditions: endpoint: median survival time, higher = longer survival
Method in brief: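 T/C = treated-group survival ÷ vehicle-control survival; tumour transplanted into mice before dosing.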

[1] = dose: 100.0 mg/kg/injection, schedule: Q01DX009 (ip), vehicle: saline
[2] = dose: 50.0 mg/kg/injection, schedule: Q04DX003 (ip), vehicle: saline
[3] = dose: 100.0 mg/kg/injection, schedule: Q04DX003 (ip), vehicle: saline
[4] = dose: 200.0 mg/kg/injection, schedule: Q04DX003 (ip), vehicle: saline
[5] = dose: 100.0 mg/kg/injection, schedule: Q01DX009 (ip), vehicle: saline with Tween-80
[6] = dose: 200.0 mg/kg/injection, schedule: Q01DX009 (ip), vehicle: saline with Tween-80
[7] = dose: 100.0 mg/kg/injection, schedule: Q01DX009 (ip), vehicle: Klucel (hydroxypropylcellulose) (HPC)
[8] = dose: 200.0 mg/kg/injection, schedule: Q01DX009 (ip), vehicle: Klucel (hydroxypropylcellulose) (HPC)
[9] = dose: 50.0 mg/kg/injection, schedule: Q01DX009 (ip), vehicle: saline with Tween-80
[10] = dose: 50.0 mg/kg/injection, schedule: Q01DX009 (ip), vehicle: Klucel (hydroxypropylcellulose) (HPC)

## CNNCc1ccc(C(=O)NC(C)C)cc1
dose: 37.5 mg/kg/injection, schedule: Q01DX010 (ip), vehicle: saline
  T/C: 100 % of control
[1]
  T/C: 112 % of control and 116 % of control
dose: 120.0 mg/kg/injection, schedule: Q01DX009 (ip), vehicle: saline
  T/C: 106 % of control
dose: 125.0 mg/kg/injection, schedule: Q01DX009 (ip), vehicle: saline
  T/C: 123 % of control
dose: 225.0 mg/kg/injection, schedule: Q01DX009 (ip), vehicle: saline
  T/C: 180 % of control
dose: 250.0 mg/kg/injection, schedule: Q01DX009 (ip), vehicle: saline
  T/C: 161 % of control
dose: 400.0 mg/kg/injection, schedule: Q01DX001 (ip), vehicle: saline
  T/C: 109 % of control

## CC[C@](C)(O)C(=O)O[C@H]1C(=O)O[C@@H]2C[C@H]3C(C)=CC(=O)[C@@H](O)[C@]3(C)[C@H]3[C@@]4(O)OC[C@]32[C@@H]1[C@@H](C)[C@H]4O
dose: 0.06 mg/kg/injection, schedule: Q01DX009 (ip), vehicle: saline with Tween-80
  T/C: 100 % of control
dose: 0.07 mg/kg/injection, schedule: Q01DX010 (ip), vehicle: saline
  T/C: 105 % of control
dose: 0.12 mg/kg/injection, schedule: Q01DX009 (ip), vehicle: saline with Tween-80
  T/C: 100 % of control
dose: 0.12 mg/kg/injection, schedule: Q01DX009 (ip), vehicle: saline
  T/C: 100 % of control
dose: 0.15 mg/kg/injection, schedule: Q01DX010 (ip), vehicle: saline
  T/C: 95 % of control
dose: 0.2 mg/kg/injection, schedule: Q01DX010 (ip), vehicle: saline
  T/C: 100 % of control
dose: 0.25 mg/kg/injection, schedule: Q01DX009 (ip), vehicle: saline
  T/C: 108 % of control
dose: 0.25 mg/kg/injection, schedule: Q01DX010 (ip), vehicle: steriod suspending solution
  T/C: 177 % of control
dose: 0.3 mg/kg/injection, schedule: Q01DX010 (ip), vehicle: saline
  T/C: 109 % of control and 110 % of control
dose: 0.44 mg/kg/injection, schedule: Q01DX010 (ip), vehicle: saline
  T/C: 104 % of control
dose: 0.5 mg/kg/injection, schedule: Q01DX009 (ip), vehicle: saline
  T/C: 104 % of control
dose: 0.5 mg/kg/injection, schedule: Q01DX010 (ip), vehicle: steriod suspending solution
  T/C: 231 % of control
dose: 0.51 mg/kg/injection, schedule: Q01DX009 (ip), vehicle: saline with Tween-80
  T/C: 161 % of control
dose: 0.6 mg/kg/injection, schedule: Q01DX010 (ip), vehicle: saline
  T/C: 150 % of control
dose: 0.64 mg/kg/injection, schedule: Q01DX009 (ip), vehicle: saline with Tween-80
  T/C: 171 % of control
dose: 0.66 mg/kg/injection, schedule: Q01DX010 (ip), vehicle: saline
  T/C: 122 % of control
dose: 1.0 mg/kg/injection, schedule: Q01DX009 (ip), vehicle: saline + alcohol
  T/C: 87 % of control

## C[N+](C)(C)CCCC[N+](C)(C)C
dose: 25.0 mg/kg/injection, schedule: Q01DX009 (ip), vehicle: saline
  T/C: 93 % of control
dose: 50.0 mg/kg/injection, schedule: Q01DX009 (ip), vehicle: saline
  T/C: 91 % of control
[2]
  T/C: 103 % of control
[1]
  T/C: 87 % of control
[3]
  T/C: 103 % of control
dose: 200.0 mg/kg/injection, schedule: Q01DX009 (ip), vehicle: saline
  T/C: 89 % of control and 93 % of control
[4]
  T/C: 100 % of control
dose: 300.0 mg/kg/injection, schedule: Q01DX009 (ip), vehicle: saline
  T/C: 93 % of control and 96 % of control

## CC(CCCN(CCCl)CCCl)Nc1ccnc2cc(Cl)ccc12 (stereo unspecified)
dose: 0.5 mg/kg/injection, schedule: Q04DX003 (ip), vehicle: saline
  T/C: 100 % of control
dose: 0.66 mg/kg/injection, schedule: Q01DX009 (ip), vehicle: saline
  T/C: 154 % of control
dose: 1.0 mg/kg/injection, schedule: Q01DX009 (ip), vehicle: saline
  T/C: 154 % of control
dose: 1.0 mg/kg/injection, schedule: Q04DX003 (ip), vehicle: saline
  T/C: 100 % of control
dose: 2.0 mg/kg/injection, schedule: Q04DX003 (ip), vehicle: saline
  T/C: 111 % of control

## CC(=O)O/C(C#N)=C1\CCCC\C1=C(\C#N)OC(C)=O
dose: 25.0 mg/kg/injection, schedule: Q01DX001 (ip), vehicle: saline with Tween-80
  T/C: 103 % of control

## Cc1cc(OC(=O)Nc2cccc(Cl)c2C)ccc1Cl
dose: 100.0 mg/kg/injection, schedule: Q04DX003 (ip), vehicle: saline with Tween-80
  T/C: 104 % of control
dose: 200.0 mg/kg/injection, schedule: Q04DX003 (ip), vehicle: saline with Tween-80
  T/C: 104 % of control
dose: 400.0 mg/kg/injection, schedule: Q04DX003 (ip), vehicle: saline with Tween-80
  T/C: 109 % of control

## O=c1oc(-c2ccc(C[n+]3ccc4ccccc4c3)cc2)nc2ccccc12
dose: 50.0 mg/kg/injection, schedule: Q01DX005 (ip), vehicle: saline with Tween-80
  T/C: 100 % of control
dose: 100.0 mg/kg/injection, schedule: Q01DX005 (ip), vehicle: saline with Tween-80
  T/C: 99 % of control
dose: 200.0 mg/kg/injection, schedule: Q01DX005 (ip), vehicle: saline with Tween-80
  T/C: 104 % of control

## CN(C)C(=O)c1cccc(NC(=O)Oc2ccccc2)c1
[5]
  T/C: 90 % of control
[6]
  T/C: 95 % of control

## O=[N+]([O-])c1cccc(/C=C/c2ccccc2)c1
dose: 100.0 mg/kg/injection, schedule: Q01DX001 (ip), vehicle: Klucel (hydroxypropylcellulose) (HPC)
  T/C: 100 % of control
[7]
  T/C: 95 % of control
dose: 200.0 mg/kg/injection, schedule: Q01DX001 (ip), vehicle: Klucel (hydroxypropylcellulose) (HPC)
  T/C: 95 % of control
[8]
  T/C: 95 % of control
dose: 400.0 mg/kg/injection, schedule: Q01DX001 (ip), vehicle: Klucel (hydroxypropylcellulose) (HPC)
  T/C: 90 % of control
dose: 400.0 mg/kg/injection, schedule: Q01DX009 (ip), vehicle: Klucel (hydroxypropylcellulose) (HPC)
  T/C: 90 % of control

## CC(=O)N1CCc2cc(N)ccc21
[2]
  T/C: 95 % of control
[3]
  T/C: 95 % of control
[4]
  T/C: 91 % of control

## CCN1C(=O)Nc2ccc(Cl)cc2C1(O)c1ccccc1 (stereo unspecified)
[9]
  T/C: 97 % of control
[6]
  T/C: 97 % of control

## CC(C)(C)c1ccc(Sc2cccc3c2C(=O)c2ccccc2C3)cc1
[9]
  T/C: 92 % of control
[5]
  T/C: 89 % of control
[6]
  T/C: 89 % of control

## COc1cccc2c1C(=O)c1c(O)c3c(c(O)c1C2=O)C[C@@](O)(/C(C)=N/NC(=O)c1cccc([N+](=O)[O-])c1)C[C@@H]3OC1CC(N)C(O)C(C)O1 (stereo partly specified)
dose: 0.25 mg/kg/injection, schedule: Q01DX009 (ip), vehicle: water
  T/C: 152 % of control
dose: 0.5 mg/kg/injection, schedule: Q01DX009 (ip), vehicle: water
  T/C: 163 % of control
dose: 1.0 mg/kg/injection, schedule: Q01DX009 (ip), vehicle: water
  T/C: 166 % of control and 191 % of control
dose: 2.0 mg/kg/injection, schedule: Q01DX009 (ip), vehicle: water
  T/C: 156 % of control and 214 % of control
dose: 4.0 mg/kg/injection, schedule: Q01DX009 (ip), vehicle: water
  T/C: 244 % of control and 184 % of control
dose: 8.0 mg/kg/injection, schedule: Q01DX009 (ip), vehicle: water
  T/C: 169 % of control

## CCCCCCCCC(=O)N1CC1
[10]
  T/C: 95 % of control
[7]
  T/C: 118 % of control
dose: 100.0 mg/kg/injection, schedule: Q04DX003 (ip), vehicle: Klucel (hydroxypropylcellulose) (HPC)
  T/C: 109 % of control
[8]
  T/C: 86 % of control
dose: 200.0 mg/kg/injection, schedule: Q04DX003 (ip), vehicle: Klucel (hydroxypropylcellulose) (HPC)
  T/C: 113 % of control

## CC1CN1P(=S)(N1CC1C)N1CC1C (stereo unspecified)
dose: 1.25 mg/kg/injection, schedule: Q01DX010 (ip), vehicle: saline
  T/C: 104 % of control
dose: 2.5 mg/kg/injection, schedule: Q01DX010 (ip), vehicle: saline
  T/C: 104 % of control
dose: 5.0 mg/kg/injection, schedule: Q01DX010 (ip), vehicle: saline
  T/C: 104 % of control
dose: 10.0 mg/kg/injection, schedule: Q01DX010 (ip), vehicle: saline
  T/C: 104 % of control

## CC(=O)Nc1c(Cl)cc2c(c1Cl)Cc1cc(N=Cc3ccc4c(c3)OCO4)ccc1-2
dose: 25.0 mg/kg/injection, schedule: Q01DX009 (ip), vehicle: Klucel (hydroxypropylcellulose) (HPC)
  T/C: 90 % of control
[10]
  T/C: 90 % of control
[7]
  T/C: 86 % of control

## CC(=O)OCc1c(C)nc2sccn12
dose: 12.5 mg/kg/injection, schedule: Q01DX001 (ip), vehicle: saline
  T/C: 102 % of control
dose: 25.0 mg/kg/injection, schedule: Q01DX001 (ip), vehicle: saline
  T/C: 92 % of control
dose: 50.0 mg/kg/injection, schedule: Q01DX001 (ip), vehicle: saline
  T/C: 96 % of control
